In US6593339B1, “Use of compounds as antibacterial agents” (AstraZeneca AB, priority 1999, dated 2003):

Tested on: Helicobacter pylori Reference Strain NCTC 11 637
Test: Agar well diffusion test: inhibition zones around wells on blood agar plates
Format: cell-based
Details: 30 μl per 3 mm well, incubated four days
Experimental: Strain: Helicobacter pylori Reference Strain NCTC 11 637 (National Type Culture Collection, from Smittskyddsinstitutet in Solna, Sweden), an Antibiotic Sensitive Reference Strain
Helicobacter pylori was grown on blood agar plates, having a diameter of 90 mm. for three days under microaerophilic conditions at 37° C. The bacteria were suspended in PBS (phosphate buffer saline) to approximately 10^8 cfu/ml. Approximately 2 ml of the suspension was added to one agar plate and spread even on the surface of the agar. Overflow was removed with a syringe. Wells, like small holes, 3 mm in diameter, were made in the agarplate by removing agar. Three wells per plate were made. […] 30 μl of the solution was added to the wells. The plates were incubated for four days before they were checked for inhibition zones around the wells.

C[S+](C)[O-] [DMSO, Di-methyl-sulphate-oxide]
inhibition zone around each well (solution 20 μg/ml): No inhibition zones

COc1ccc2cc([C@H](C)C(=O)O)ccc2c1 [Naproxen]
zone of inhibition at 10000 µg/mL (Helicobacter pylori, NCTC11, 96 h, stock solution 10000 μg/ml, read-out: inhibition zone around each well): 16.6 mm | inhibition zone around each well (stock solution 100 μg/ml): No inhibition zones | inhibition zone around each well (stock solution 1000 μg/ml): No inhibition zones

CC(=O)N[C@H](C(=O)O)C(C)(C)SN=O [SNAP, S-nitroso-N-acetyl-penicillamin]
inhibition zone around each well (stock solution 10000 μg/ml): No inhibition zones

COc1ccc2cc(C(C)C(=O)OCCCCO[N+](=O)[O-])ccc2c1 (stereo not drawn) [formula Ia]
zone of inhibition at 100 µg/mL (Helicobacter pylori, NCTC11, 96 h, stock solution 100 μg/ml, read-out: inhibition zone around each well): 10.4 mm | zone of inhibition at 1000 µg/mL (Helicobacter pylori, NCTC11, 96 h, stock solution 1000 μg/ml, read-out: inhibition zone around each well): 13 mm | inhibition zone around each well (stock solution 10000 μg/ml): large | inhibition zone around each well (stock solution 100000 μg/ml): large
